In patent US8269026B2, “Lupane derivatives useful for treating HIV” (priority 2008, dated 2012):
Read-outs that look alike come from different tables or passages of the source.

System: HIV-1 (HIVIIIB) replication in MT2 cell line
Assay: HIV-1 replication in MT2 cell line with and without 30% human serum (viral RT activity in supernatant)
Format: cell-based
Settings: Human immunodeficiency virus 1, MT2 cells, average IC50 if tested more than once
Protocol: HIV-1 Replication in MT2 cell line with and without 30% human serum: The cells are infected at a Multiciplicity of Infection (MOI) of 0.5 for 3 h and then washed twice with complete media to remove residual virus. Cells are then resuspended at 0.5×10^6/ml in complete medium (RPMI, 10% FBS, 1% sodium pyruvate), and seeded into 96-well plates (6.25×10^4/well). The cells are cultured in the presence or absence of various concentrations of test compounds in serial dilutions for 3 days at 37° C. The test compounds are serially diluted in complete medium supplemented or not with 30% human serum. After 3 days, 100 μL of cultured medium with cells are replaced with 120 μL of freshly diluted test compounds in complete medium containing or not 30% Human serum. The level of HIV-1 replication is determined at days 5 after infection by the presence of viral RT activity in harvested supernatant fluid. The IC50 and IC90 values for the virus replication are determined by using GRAPHPAD PRISM software.
The IC50 of the compounds tested in accordance with the HIV replication activity assay MT2 (HIVIIIB) are represented in Table 1.

[1] = with 30% human serum, read-out: MT2 (HIVIIIB) with HS 30% IC50 range
[2] = without human serum, read-out: MT2 (HIVIIIB) IC50 range

Structure (SMILES) | IC50 [1] [µM] | IC50 [2] [µM]
CC(C)C1=C2C3CCC4[C@@]5(C)CC[C@H](OC(=O)CC(C)(C)C(=O)O)C(C)(C)C5CC[C@@]4(C)[C@]3(C)CC[C@@]2(NC(=O)N2CCC(N(C)C(=O)OC(C)(C)C)CC2)CC1=O (stereo partly drawn) [17-36, 3β-O-(3′,3′-Dimethylsuccinyl)-17β-[(4-(tert-butyloxycarbonyl-methyl-amino)-piperidine-1-carbonyl)-amino]-21-oxolup-18-ene] | < 0.199 | 
CC(C)C1=C2C3CCC4[C@@]5(C)CC[C@H](OC(=O)CC(C)(C)C(=O)O)C(C)(C)C5CC[C@@]4(C)[C@]3(C)CC[C@@]2(NC(=O)OCC2CC2)CC1=O (stereo partly drawn) [20-3, 3β-O-(3′,3′-Dimethylsuccinyl)-17β-cyclopropylmethoxycarbonylamino-21-oxolup-18-ene] | < 0.199 | < 0.199
CC(C)C1=C2C3CCC4[C@@]5(C)CC[C@H](OC(=O)CC(C)(C)C(=O)O)C(C)(C)C5CC[C@@]4(C)[C@]3(C)CC[C@@]2(NC(=O)NC(C)c2ccccn2)CC1=O (stereo partly drawn) [17-72, 3β-O-(3′,3′-Dimethylsuccinyl)-17β-[N′-(1-pyridin-2-yl-ethyl)-ureido]-21-oxolup-18-ene] | < 0.199 | 
CC(C)C1=C2C3CCC4[C@@]5(C)CC[C@H](OC(=O)CC(C)(C)C(=O)O)C(C)(C)C5CC[C@@]4(C)[C@]3(C)CC[C@@]2(NC(=O)N2CC[C@H](NC(=O)OC(C)(C)C)C2)CC1=O (stereo partly drawn) [17-41, 3β-O-(3′,3′-Dimethylsuccinyl)-17β-[((S)-3-tert-butyloxycarbonylamino-pyrrolidine-1-carbonyl)-amino]-21-oxolup-18-ene] | < 0.199 | 
CC(C)C1=C2[C@H]3CC[C@@H]4[C@@]5(C)CC[C@H](OC(=O)CC(C)(C)C(=O)O)C(C)(C)[C@@H]5CC[C@@]4(C)[C@]3(C)CC[C@@]2(NC(=O)c2ccnn2C)CC1=O [19-34, 3β-O-(3′,3′-Dimethylsuccinyl)-17β-(1-methyl-1H-pyrazole-5-amido)-21-oxolup-18-ene] | < 0.199 | < 0.199
CC(C)C1=C2C3CCC4[C@@]5(C)CC[C@H](OC(=O)CC(C)(C)C(=O)O)C(C)(C)C5CC[C@@]4(C)[C@]3(C)CC[C@@]2(NC(=O)c2cncnc2)CC1=O (stereo partly drawn) [19-23, 3β-O-(3′,3′-Dimethylsuccinyl)-17β-(pyrimidine-5-amido)-21-oxolup-18-ene] | < 0.199 | < 0.199
CC(C)C1=C2C3CCC4[C@@]5(C)CC[C@H](OC(=O)CC(C)(C)C(=O)O)C(C)(C)C5CC[C@@]4(C)[C@]3(C)CC[C@@]2(NC(=O)c2ccsc2)CC1=O (stereo partly drawn) [19-78, 3β-O-(3′,3′-Dimethylsuccinyl)-17β-(thiophene-3-amido)-21-oxolup-18-ene] | < 0.199 | 
CC(C)C1=C2[C@H]3CC[C@@H]4[C@@]5(C)CC[C@H](OC(=O)CC(C)(C)C(=O)O)C(C)(C)[C@@H]5CC[C@@]4(C)[C@]3(C)CC[C@@]2(NC(=O)C2CCN(C(=O)OC(C)(C)C)CC2)CC1=O [19-5, 3β-O-(3′,3′-Dimethylsuccinyl)-17β-(1-tert-butyloxycarbonylpiperidine-4-amido)-21-oxolup-18-ene] | < 0.199 | < 0.199
Cc1nnc(C(=O)N[C@@]23CC[C@]4(C)C(CCC5[C@@]6(C)CC[C@H](OC(=O)CC(C)(C)CC(=O)O)C(C)(C)C6CC[C@]54C)C2=C(C(C)C)C(=O)C3)o1 (stereo partly drawn) [19-75, 3β-O-(3′,3′-Dimethylglutaryl)-17β-(5-methyl-[1,3,4]oxadiazole-2-amido)-21-oxolup-18-ene] | < 0.199 | 
CC(C)C1=C2C3CCC4[C@@]5(C)CC[C@H](OC(=O)CC(C)(C)C(=O)O)C(C)(C)C5CC[C@@]4(C)[C@]3(C)CC[C@@]2(NC(=O)C2CCCCC2)CC1=O (stereo partly drawn) [19-33, 3β-O-(3′,3′-Dimethylsuccinyl)-17β-cyclohexylamido-21-oxolup-18-ene] | < 0.199 | < 0.199
CC(C)C1=C2C3CCC4[C@@]5(C)CC[C@H](OC(=O)CC(C)(C)C(=O)O)C(C)(C)C5CC[C@@]4(C)[C@]3(C)CC[C@@]2(NC(=O)Cn2ccnc2)CC1=O (stereo partly drawn) [19-60, 3β-O-(3′,3′-Dimethylsuccinyl)-17β-(1-imidazole-acetamido)-21-oxolup-18-ene] | < 0.199 | 
CC(C)C1=C2C3CCC4[C@@]5(C)CC[C@H](OC(=O)CC(C)(C)C(=O)O)C(C)(C)C5CC[C@@]4(C)[C@]3(C)CC[C@@]2(NC(=O)N(C)C(C)C)CC1=O (stereo partly drawn) [17-18, 3β-O-(3′,3′-Dimethylsuccinyl)-17β-[N′-isopropyl-N′-methyl-ureido]-21-oxolup-18-ene] | < 0.199 | 
CN[C@@]12CC[C@]3(C)[C@H](CC[C@@H]4[C@@]5(C)CC[C@H](OC(=O)CC(C)(C)C(=O)O)C(C)(C)[C@@H]5CC[C@]43C)C1=C(C(C)C)C(=O)C2 [16-2, 3β-O-(3′,3′-Dimethylsuccinyl)-17β-(methylamino)-21-oxolup-18-ene] | < 0.199 | 
CC(C)C1=C2[C@H]3CC[C@@H]4[C@@]5(C)CC[C@H](OC(=O)CC(C)(C)C(=O)O)C(C)(C)[C@@H]5CC[C@@]4(C)[C@]3(C)CC[C@@]2(NC(=O)c2ccncc2)CC1=O [19-14, 3β-O-(3′,3′-Dimethylsuccinyl)-17β-(pyridin4-yl)amido-21-oxolup-18-ene] | < 0.199 | 
CC(C)C1=C2[C@H]3CC[C@@H]4[C@@]5(C)CC[C@H](OC(=O)CC(C)(C)C(=O)O)C(C)(C)[C@@H]5CC[C@@]4(C)[C@]3(C)CC[C@@]2(NC(=O)c2nccs2)CC1=O [19-21, 3β-O-(3′,3′-Dimethylsuccinyl)-17β-(1,3-thiazole-2-amido)-21-oxolup-18-ene] | < 0.199 | 
CC(C)C1=C2C3CCC4[C@@]5(C)CC[C@H](OC(=O)CC(C)(C)C(=O)O)C(C)(C)C5CC[C@@]4(C)[C@]3(C)CC[C@@]2(NC(=O)NCC2CCN(C)CC2)CC1=O (stereo partly drawn) [17-28, 3β-O-(3′,3′-Dimethylsuccinyl)-17β-[N′-(1-methyl-piperidin-4-ylmethyl)-ureido]-21-oxolup-18-ene] | > 1 | 
CC(C)C1=C2[C@H]3CC[C@@H]4[C@@]5(C)CC[C@H](OC(=O)CC(C)(C)C(=O)O)C(C)(C)[C@@H]5CC[C@@]4(C)[C@]3(C)CC[C@@]2(NC(=O)c2cccnc2)CC1=O [19-8, 3β-O-(3′,3′-Dimethylsuccinyl)-17β-(pyridin-3-yl)amido-21-oxolup-18-ene] | < 0.199 | < 0.199
CC(C)C1=C2C3CCC4[C@@]5(C)CC[C@H](OC(=O)CC(C)(C)C(=O)O)C(C)(C)C5CC[C@@]4(C)[C@]3(C)CC[C@@]2(NC(=O)c2nccn2C)CC1=O (stereo partly drawn) [19-26, 3β-O-(3′,3′-Dimethylsuccinyl)-17β-(1-methyl-1H-imidazole-2-amido)-21-oxolup-18-ene] | < 0.199 | 
CC(C)C1=C2[C@H]3CC[C@@H]4[C@@]5(C)CC[C@H](OC(=O)CC(C)(C)C(=O)O)C(C)(C)[C@@H]5CC[C@@]4(C)[C@]3(C)CC[C@@]2(NC(=O)Nc2ccncn2)CC1=O [17-46, 3β-O-(3′,3′-Dimethylsuccinyl)-17β-(N′-pyrimidin-4-yl-ureido)-21-oxolup-18-ene] | < 0.199 | 
CC(C)C1=C2[C@H]3CC[C@@H]4[C@@]5(C)CC[C@H](OC(=O)CC(C)(C)C(=O)O)C(C)(C)[C@@H]5CC[C@@]4(C)[C@]3(C)CC[C@@]2(NC(=O)[C@H]2CCCCN2C)CC1=O [19-66, 3β-O-(3′,3′-Dimethylsuccinyl)-17β-((R)-1-methylpiperidine-2-amido)-21-oxolup-18-ene] | < 0.199 | 
CC(C)C1=C2[C@H]3CC[C@@H]4[C@@]5(C)CC[C@H](OC(=O)CC(C)(C)C(=O)O)C(C)(C)[C@@H]5CC[C@@]4(C)[C@]3(C)CC[C@@]2(NC(=O)c2ccc(F)cc2)CC1=O [19-13, 3β-O-(3′,3′-Dimethylsuccinyl)-17β-(4-fluorobenzamido)-21-oxolup-18-ene] | < 0.199 | < 0.199
CC(=O)N1CCC(NC(=O)N[C@@]23CC[C@]4(C)C(CCC5[C@@]6(C)CC[C@H](OC(=O)CC(C)(C)C(=O)O)C(C)(C)C6CC[C@]54C)C2=C(C(C)C)C(=O)C3)CC1 (stereo partly drawn) [17-11, 3β-O-(3′,3′-Dimethylsuccinyl)-17β-[N′-(1-acetyl-piperidin-4-yl)-ureido]-21-oxolup-18-ene] | < 0.199 | 
CC(C)C1=C2[C@H]3CC[C@@H]4[C@@]5(C)CC[C@H](OC(=O)CC(C)(C)C(=O)O)C(C)(C)[C@@H]5CC[C@@]4(C)[C@]3(C)CC[C@@]2(NC(=O)N2CCN(C(C)C)CC2)CC1=O [17-29, 3β-O-(3′,3′-Dimethylsuccinyl)-17β-[(4-isopropyl-piperazine-1-carbonyl)-amino]-21-oxolup-18-ene] | < 0.199 | 
CC(C)C1=C2C3CCC4[C@@]5(C)CC[C@H](OC(=O)CC(C)(C)C(=O)O)C(C)(C)C5CC[C@@]4(C)[C@]3(C)CC[C@@]2(NC(=O)N2CCC(F)(F)C2)CC1=O (stereo partly shown) [17-58] | < 0.199 | 
Cc1noc(C(=O)N[C@@]23CC[C@]4(C)C(CCC5[C@@]6(C)CC[C@H](OC(=O)CC(C)(C)C(=O)O)C(C)(C)C6CC[C@]54C)C2=C(C(C)C)C(=O)C3)n1 (stereo partly drawn) [19-67, 3β-O-(3′,3′-Dimethylsuccinyl)-17β-(3-methyl-[1,2,4]oxadiazole-5-amido)-21-oxolup-18-ene] | < 0.199 | 
CC(C)C1=C2[C@H]3CC[C@@H]4[C@@]5(C)CC[C@H](OC(=O)CC(C)(C)C(=O)O)C(C)(C)[C@@H]5CC[C@@]4(C)[C@]3(C)CC[C@@]2(NC(=O)Nc2ccccc2)CC1=O [17-3, 3β-O-(3′,3′-Dimethylsuccinyl)-17β-[N′-(phenyl)ureido]-21-oxolup-18-ene] | < 0.199 | < 0.199
